What all share (test): NCI tumour cell line growth inhibition, 48 h
The subject of assay [1] is SF-268 CNS.
Assay [2] has as its system DU-145 prostate.
Assay [3] relates to RPMI-8226 leukemia.
Assay [4] deals with HT29 colon.
In assay [5] the test system is MDA-MB-435.
For assay [6], the system named is HCT-15 colon.
The test system of assay [7] is UACC-257 melanoma.
Assay [8] relates to SNB-19 CNS.
In assay [9] the test system is OVCAR-8 ovarian.
Assay [10] relates to SK-OV-3 ovarian.

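Exposure lasted 48 hours, with cells grown in 96-well plates and compounds tested at five concentrations. GI50 is the concentration that inhibits growth by half. TGI is the concentration that stops growth completely.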

For the compound `N#Cc1c(-c2ccc(Cl)cc2)c2c([nH]c1=O)-c1cc([N+](=O)[O-])ccc1CCC2`, the TGI in assay [1] was 44.2 µM; in assay [2] it was more than 100 µM; in assay [3], more than 100 µM; in assay [4], 75.5 µM; in assay [5], more than 100 µM; in assay [6], 47.6 µM. The TGI is 57 µM in assay [7], 56.8 µM in assay [8], 50.8 µM in [9] and more than 100 µM in assay [10].

As to `COP(=O)(OC)[C@H](O)[C@H]1C[C@@H]1c1ccccc1`, the TGI in assay [1], in assay [2], in [3], in [4], in assay [5] and in [6] was more than 100 µM throughout. Moreover, the TGI in [7], in assay [8], in [9] and in [10] was more than 100 µM in each case.

Regarding `Cc1ccc(C(=O)Nc2ncn(C3CC(O)C(CO)O3)c(=O)n2)cc1` (stereo not drawn), the TGI in assay [1], in assay [3], in [4], in [6], in [7] and in assay [8] was more than 100 µM in each case. The TGI in [9] and in [10] was more than 100 µM each time.

With `C/C(=C\C(=N\NC(=N)N)c1ccccc1)c1ccccc1`, the TGI came out at 2.3 µM in assay [1]; 9.49 µM in assay [2]; 8.41 µM in assay [3]; 3.44 µM in assay [4]; 2.97 µM in assay [5]; 14.7 µM in assay [6]. Besides, the TGI in assay [8] came out at 3.49 µM; in assay [9], 4.83 µM; in assay [10], 15.7 µM.

For `CCN(CCO)CCNc1ccc(C)c2sc3ccccc3c(=O)c12`, the TGI in [1] came to 20.9 µM; in assay [2], 21.8 µM; in assay [3], 20.3 µM; in [4], 6.31 µM; in assay [5], 3.74 µM; in assay [6], 10.8 µM. Further, the TGI in [7] is 6.16 µM; in assay [8] it was 24.7 µM; in [9], 14.2 µM; in assay [10], 18.1 µM.

For `O=c1[nH]c(=O)n(CCOCP(=O)(O)O)nc1Br`, the TGI in [1], in assay [2], in assay [3], in assay [4], in assay [5] and in assay [6] was more than 100 µM each time. For the same compound, the TGI in [8] and in assay [9] was more than 100 µM throughout.

For `COc1ccc2c(c1)CCCc1c-2nc2ccccc2c1N`, the TGI in assay [1] worked out at 29.2 µM; in assay [2], 26.1 µM; in assay [3], 27.3 µM; in [4], 13.7 µM; in [5], 24.8 µM; in [6], 26.5 µM. Further, the TGI turned out to be 9.56 µM in assay [7], 31.8 µM in [8], 26.8 µM in assay [9] and 24.2 µM in assay [10].

`COc1ccc(N=Cc2ccc(N(CCC#N)S(=O)(=O)c3ccccc3)cc2C)cc1`: the TGI in [1], in assay [3], in [4], in [6], in assay [7] and in assay [8] was more than 100 µM in each case. Moreover, the TGI in [9] and in assay [10] was more than 100 µM throughout.

As for `CN1NC(c2ccccc2)=C(C#N)C(=O)CC1c1ccc(F)cc1` (stereo not drawn), the TGI in assay [1], in assay [3], in assay [4], in assay [6], in [7] and in [8] was more than 100 µM each time. Moreover, in assay [10], the TGI was more than 100 µM.

Turning to `CCCCCCCCCCCCSC(=S)c1c(C)[nH]n(CCCCCCCCCCCC)c1=O`, the TGI in [1], in assay [3], in assay [4], in assay [6], in assay [7] and in assay [8] was more than 100 µM in each case. In addition, the TGI in assay [9] and in assay [10] was more than 100 µM in each case.

Consider `Cc1cc(=O)n2c3c(c4c(cc13)c(CN(C)C)cc(=O)n4C)OC2`, for which the TGI is 55.7 µM in assay [1]; more than 75.9 µM in assay [2]; more than 100 µM in assay [3]; more than 45.9 µM in assay [4]; more than 58.2 µM in assay [5]; more than 56.7 µM in assay [6]. Besides, the TGI in assay [7] is more than 70.5 µM; in [8] it was more than 74.6 µM; in [9], more than 66.6 µM; in [10], more than 94.7 µM.

For `O=C(NC(Cc1ccc(Cl)cc1)C(=O)O)c1ccc(I)cc1` (stereo not drawn), the TGI in assay [1], in assay [3], in assay [4], in assay [6], in [7] and in [8] was more than 100 µM throughout. In addition, the TGI in assay [9] and in assay [10] was more than 100 µM each time.

For `C=C1CC2C3C=C(C)C4=CC(=O)CC[C@]4(C)C3CC[C@]2(C)[C@@]1(OC(C)=O)C(C)=O` (stereo partly drawn), the GI50 in assay [1] is 5.46 µM; in [2], more than 100 µM; in assay [3], 1.25 µM; in assay [8], more than 100 µM. Also, the TGI in assay [1] was more than 100 µM; in [2], more than 100 µM; in [3] it was 5.6 µM; in [8], more than 100 µM.

In the case of `Cc1cn(Cc2cn(CC3OC(n4cc(C)c(=O)[nH]c4=O)CC3O)nn2)c(=O)[nH]c1=O` (stereo not drawn), the TGI in assay [1], in assay [2], in assay [3], in [5], in assay [6] and in assay [7] was more than 100 µM in each case. Also, the TGI in assay [8], in [9] and in [10] was more than 100 µM throughout.

Source of the values: PubChem BioAssay (NCI).
